Assay results as given in patent US11578140B2, “Immunoassay for mitragynine” (MICROGENICS CORPORATION, priority 2019, dated 2023).

Test system: anti-mitragynine antibody
Assay: Cross reactivity of the anti-mitragynine antibody against kratom alkaloids and mitragynine metabolites
Format: binding, Balb/c mice
Details: for Cross Reactivity (%): tested concentration (ng/mL): Mitragynine 50, 7-hydroxy mitragynine 35,000-40,000, Paynantheine 25,000-35,000, Speciociliatine 25,000-35,000, 16-carboxy mitragynine 300-360, 9-Hydroxycorynantheidine 3,125-4,000; for cross reactivity (in words): metabolites of mitragynine, antibody derived from the BSA immunogen
Procedure: In a particular embodiment of the invention, the BSA-containing immunogen of Example 4 (Compound 6) was administered to Balb/c mice in a series of injections as is routine in the art. Alternatively, other mammals are suitable for antibody production. Screening of anti-serum samples taken from the immunized mice was performed to assess antibody titer and to evaluate the ability of antibodies in the samples to bind to enzyme-donor conjugate described in Example 6.
In particular, β-galactosidase enzyme donor polypeptide fragment combines with a β-galactosidase enzyme acceptor fragment to form active β-galactosidase enzyme. The active enzyme complex is capable of transforming a substrate into a product that is differentially detectable. Usually, the product is a different color from the substrate and is quantified using spectrophotometric methods. […] Therefore, the enzyme-catalyzed reaction rate is directly proportional to the concentration of target analyte present in the specimen tested. A preferred β-galactosidase enzyme donor is ED28, a polypeptide containing residues 6-45 of β-galactosidase, with cysteines at positions 1 and 46 (relative to the numbering of the original β-galactosidase fragment).
The cross reactivity of the anti-mitragynine antibody derived from the immunogen described above was tested against certain kratom alkaloids and metabolites of mitragynine shown below.

Structure (SMILES) | Cross Reactivity (%) | cross reactivity (in words)
C=C[C@H]1CN2CCc3c([nH]c4cccc(OC)c34)[C@@H]2C[C@@H]1/C(=C\OC)C(=O)OC [Paynantheine] | ≤0.2% | –
CC[C@@H]1CN2CC[C@@]3(O)C(=Nc4cccc(OC)c43)[C@@H]2C[C@@H]1/C(=C\OC)C(=O)OC [7-hydroxy mitragynine] | ≤0.2% | –
CC[C@@H]1CN2CCc3c([nH]c4cccc(OC)c34)[C@@H]2C[C@@H]1/C(=C\OC)C(=O)OC [Mitragynine, methyl (E)-2-[(2S,3S,12bS)-3-ethyl-8-methoxy-1,2,3,4,6,7,12,12b-octahydroindolo[2,3-a]quinolizin-2-yl]-3-methoxyprop-2-enoate] | 100% | –
CC[C@@H]1CN2CCc3c([nH]c4cccc(O)c34)[C@@H]2C[C@@H]1/C(=C\OC)C(=O)OC [9-Hydroxycorynantheidine, (E)-2-[(25,35,12b5)-3-ethyl-8-hydroxy-1,2,3,4,6,7,12,12b-octahydroindolo [2,3-a]quinozilizin-2-yl]-3-methoxy propenoic acid methyl ester] | 1.25-1.6% | low levels of cross reactivity
CC[C@@H]1CN2CCc3c([nH]c4cccc(OC)c34)[C@@H]2C[C@@H]1/C(=C\OC)C(=O)O [16-carboxy mitragynine] | 13.9-16.7% | low levels of cross reactivity
CC[C@@H]1CN2CCc3c([nH]c4cccc(OC)c34)[C@H]2C[C@@H]1/C(=C\OC)C(=O)OC [Speciociliatine] | ≤0.2% | –
